This is an account of results in patent US10975056B2 (GlaxoSmithKline Intellectual Property Development Limited, priority 2016, dated 2021).

One assay concerns the target DNMT1 (Homo sapiens, UniProt P26358). In words: DNMT1 biochemical activity, breaklight assay and/or SPA assay.
The target in a further assay is DNMT3B (Homo sapiens (Human), UniProt Q9UBC3). In words: DNMT3B breaklight assay. In kind it is biochemical.
The test system of assay [1] is erythroid progenitor cells (EPCs). In words: Fetal hemoglobin (HbF) ELISA in day 7 erythroid progenitor cells.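 Note: for fetal hemoglobin induction normalized to vehicle-treated cells.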 Type of assay: cell-based, human. As to conditions: Homo sapiens, Erythroid progenitor cell, HbF ELISA, day 7 EPCs, 5 days; read-out: EPC ELISA (pEC50 category) (converted). The essentials: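 Day 7 EPCs from human bone marrow CD34+ cells were plated at 1,000 cells/well in media with 3 U/mL rhEPO. They were exposed to a 22-point dilution ([…]) for 5 days at 37 °C. Lysate HbF was measured by sandwich ELISA (OD450) and normalized to DMSO control wells.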
A general note: An ELISA detects its analyte on a solid surface through an enzyme-linked reagent.

The next assay deals with human DNMT3a/3l (Homo sapiens (Human), UniProt Q9Y6K1). As to the kind of experiment: DNMT3a/3l breaklight assay. Type of assay: biochemical. How it is done:
DNMT3a/3l Breakliqht Assay
DNMT3a/3l breaklight in vitro assays were conducted in a total volume of 50 μl in a standard 384 well format, using black non-binding surface microplates (Corning #3575). […] Negative control wells used 5 μl of DNMT3a/3l and 5 μl of oligonucleotide but also included 200 μM SAH. All reagents were made up in 1× assay buffer (20 mM Tris pH 7.4, 100 mM NaCl, 1.5 mM EDTA, 0.1 mM MgCl2, 1 mM CHAPS and 1 mM DTT). The reaction was incubated at 37° C. for 90 min and then stopped with the addition of 40 μl detection reagent. Detection reagent, made up in 1× Gla assay buffer (20 mM Tris pH 8.0, 80 mM NaCl, 0.75 mM MgCl2, 0.01% Triton X100 and 1 mM DTT) has a final concentration of 200 μM SAH (Sigma #A9384) and 0.0008 units/μl Gla1 restriction endonuclease (Sibenzyme #E494). Following addition of the detection reagent the plate was incubated in the dark at room temperature for 5 hr. Fluorescence intensity was then measured on the PHERAstar FS (BMG Labtech) at Ex 485 nm and Em 520 nm, with a gain of 400 and an integration time of 100 ms.

Setting [2] is: binned activity in either the breaklight or the SPA assay.
The mark [3] stands for this setting: read-out: DNMT3B Breaklight IC50.
Setting [4] is: read-out: DNMT3A Breaklight IC50.
The mark [5] stands for this setting: binned activity in either the breaklight or the SPA assay, read-out: DNMT1 BioChemical (pIC50 category) (converted).
The mark [6] stands for this setting: breaklight assay and/or SPA assay, repeated experimental runs.
Setting [7] is: breaklight assay and/or SPA assay, repeated experimental runs, read-out: average pIC50 against DNMT1 (converted).
Where [8] appears, read: repeated experimental runs, read-out: average IC50, DNMT3B breaklight assay.

Structures can show the parent of a compound that is named as a salt. Where two headings read alike, the source gives them in different places.

Sequence of DNMT1 (P26358 whole entry, looked up): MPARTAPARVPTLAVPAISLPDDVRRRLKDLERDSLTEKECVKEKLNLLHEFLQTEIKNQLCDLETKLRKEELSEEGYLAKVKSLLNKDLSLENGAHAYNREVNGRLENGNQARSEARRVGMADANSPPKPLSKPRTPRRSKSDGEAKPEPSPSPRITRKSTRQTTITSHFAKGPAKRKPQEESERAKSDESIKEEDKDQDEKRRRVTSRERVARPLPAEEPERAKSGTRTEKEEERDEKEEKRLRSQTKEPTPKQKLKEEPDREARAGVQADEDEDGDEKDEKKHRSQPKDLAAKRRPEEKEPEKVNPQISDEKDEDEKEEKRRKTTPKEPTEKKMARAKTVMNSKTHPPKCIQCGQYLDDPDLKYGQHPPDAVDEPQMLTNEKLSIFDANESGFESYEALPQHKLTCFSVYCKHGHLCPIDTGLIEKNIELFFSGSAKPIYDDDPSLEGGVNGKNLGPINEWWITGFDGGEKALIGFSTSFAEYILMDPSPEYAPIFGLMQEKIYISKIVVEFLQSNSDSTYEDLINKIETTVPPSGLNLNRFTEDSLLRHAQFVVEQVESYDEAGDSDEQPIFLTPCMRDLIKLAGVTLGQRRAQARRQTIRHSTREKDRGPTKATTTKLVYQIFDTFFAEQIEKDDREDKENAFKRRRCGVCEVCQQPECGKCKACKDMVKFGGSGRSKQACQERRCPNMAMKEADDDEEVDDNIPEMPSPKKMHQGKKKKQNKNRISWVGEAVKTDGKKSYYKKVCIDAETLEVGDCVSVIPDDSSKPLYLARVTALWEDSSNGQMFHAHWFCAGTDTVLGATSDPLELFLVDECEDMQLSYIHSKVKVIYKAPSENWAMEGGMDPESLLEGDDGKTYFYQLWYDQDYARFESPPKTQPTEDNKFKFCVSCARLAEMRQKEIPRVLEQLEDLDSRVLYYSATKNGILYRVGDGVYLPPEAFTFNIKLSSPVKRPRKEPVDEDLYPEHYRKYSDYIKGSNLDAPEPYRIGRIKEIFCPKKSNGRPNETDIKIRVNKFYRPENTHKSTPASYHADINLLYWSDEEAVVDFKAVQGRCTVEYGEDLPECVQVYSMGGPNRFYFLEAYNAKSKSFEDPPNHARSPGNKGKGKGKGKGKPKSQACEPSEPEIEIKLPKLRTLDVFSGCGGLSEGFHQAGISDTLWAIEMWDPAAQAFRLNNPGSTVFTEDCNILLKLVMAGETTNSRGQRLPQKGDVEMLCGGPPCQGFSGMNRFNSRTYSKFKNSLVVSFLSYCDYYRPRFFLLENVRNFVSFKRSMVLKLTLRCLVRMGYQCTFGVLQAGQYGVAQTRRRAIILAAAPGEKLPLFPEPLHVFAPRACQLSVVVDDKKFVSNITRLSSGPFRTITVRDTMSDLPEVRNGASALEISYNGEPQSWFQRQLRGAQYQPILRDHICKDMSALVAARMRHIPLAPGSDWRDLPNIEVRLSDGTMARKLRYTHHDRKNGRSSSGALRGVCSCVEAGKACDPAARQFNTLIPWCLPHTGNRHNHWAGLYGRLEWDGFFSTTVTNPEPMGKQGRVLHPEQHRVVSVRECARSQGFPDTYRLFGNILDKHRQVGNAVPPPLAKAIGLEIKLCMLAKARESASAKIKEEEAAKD
Sequence of human DNMT3a/3l (Q9Y6K1 whole entry, looked up): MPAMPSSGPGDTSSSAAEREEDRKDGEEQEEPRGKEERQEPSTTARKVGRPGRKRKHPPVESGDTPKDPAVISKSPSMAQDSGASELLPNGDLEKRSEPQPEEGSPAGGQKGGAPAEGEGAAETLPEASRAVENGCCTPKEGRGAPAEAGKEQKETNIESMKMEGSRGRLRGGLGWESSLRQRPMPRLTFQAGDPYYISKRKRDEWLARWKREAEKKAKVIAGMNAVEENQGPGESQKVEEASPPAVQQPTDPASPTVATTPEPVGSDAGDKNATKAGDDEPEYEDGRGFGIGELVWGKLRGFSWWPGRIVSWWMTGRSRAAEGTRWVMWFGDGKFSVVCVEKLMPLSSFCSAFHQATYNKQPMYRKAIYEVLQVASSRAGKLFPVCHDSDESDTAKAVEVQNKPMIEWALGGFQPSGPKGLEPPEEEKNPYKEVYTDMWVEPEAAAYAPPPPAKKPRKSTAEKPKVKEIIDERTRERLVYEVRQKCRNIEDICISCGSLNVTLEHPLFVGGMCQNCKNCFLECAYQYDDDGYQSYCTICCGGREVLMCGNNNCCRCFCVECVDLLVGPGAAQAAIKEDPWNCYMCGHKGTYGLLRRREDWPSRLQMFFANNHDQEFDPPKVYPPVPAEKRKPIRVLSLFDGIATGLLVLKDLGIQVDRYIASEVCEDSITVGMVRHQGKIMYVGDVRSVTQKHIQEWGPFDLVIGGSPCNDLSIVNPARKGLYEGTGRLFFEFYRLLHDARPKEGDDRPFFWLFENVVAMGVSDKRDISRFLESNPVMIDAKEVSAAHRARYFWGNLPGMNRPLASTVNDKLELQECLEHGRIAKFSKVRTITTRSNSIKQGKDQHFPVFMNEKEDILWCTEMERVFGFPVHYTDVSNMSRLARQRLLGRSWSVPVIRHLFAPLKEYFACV
Sequence of human DNMT3a/3l (Q9UJW3 whole entry partner, looked up): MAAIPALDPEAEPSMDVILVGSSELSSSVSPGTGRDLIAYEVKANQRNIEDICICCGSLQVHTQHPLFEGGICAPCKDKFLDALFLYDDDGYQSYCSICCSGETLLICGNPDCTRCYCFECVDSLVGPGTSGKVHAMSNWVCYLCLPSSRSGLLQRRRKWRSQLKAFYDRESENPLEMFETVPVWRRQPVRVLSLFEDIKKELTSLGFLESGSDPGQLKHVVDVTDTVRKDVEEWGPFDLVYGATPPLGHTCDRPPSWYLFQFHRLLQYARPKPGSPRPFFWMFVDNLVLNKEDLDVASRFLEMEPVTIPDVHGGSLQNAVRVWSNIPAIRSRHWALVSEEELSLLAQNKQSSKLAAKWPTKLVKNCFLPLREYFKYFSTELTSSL

For `CCc1c(C#N)c(SCc2ccc(CC(=O)NC)cc2)nc(N2CCCN(C)CC2)c1C#N` [Example 84, 2-(4-(((3,5-Dicyano-4-ethyl-6-(4-methyl-1,4-diazepan-1-yl)pyridin-2-yl)thio)methyl)phenyl)-N-methylacetamide], the “DNMT1 BioChemical (pIC50 category)” value on DNMT1 (setting [2]) is given as “D (Category D: ≥6.5)”. Also, on DNMT3B (setting [3]), the IC50 was more than 250000 nM. In assay [1], the EC50 is less than 316 nM.
As for `CN(C)c1nc(SC(C(N)=O)c2ccccc2)c(C#N)c(C2CC2)c1C#N` (stereo not drawn) [Example 127, 2-((3,5-Dicyano-4-cyclopropyl-6-(dimethylamino)pyridin-2-yl)thio)-2-phenylacetamide], the “DNMT1 BioChemical (pIC50 category)” value on DNMT1 (setting [2]) is “D (Category D: ≥6.5)”. In addition, the IC50 at DNMT3B (setting [3]) and on human DNMT3a/3l (setting [4]) was more than 500000 nM each time. The EC50 in assay [1] is 316 to 1000 nM.
As to `CCc1c(C#N)c(SC(C(N)=O)c2ccccc2)nc(N2CCCN(CCOC)CC2)c1C#N` (stereo not drawn) [Example 106, 2-({3,5-Dicyano-4-ethyl-6-[4-(2-methoxyethyl)-1,4-diazepan-1-yl]pyridin-2-yl}sulfanyl)-2-phenylacetamide], the “DNMT1 BioChemical (pIC50 category)” value on DNMT1 (setting [2]) is recorded as “D (Category D: ≥6.5)”. The IC50 on DNMT3B (setting [3]) and on human DNMT3a/3l (setting [4]) was more than 500000 nM throughout. Moreover, the EC50 in assay [1] is less than 316 nM.
Turning to `CCc1c(C#N)c(SC(C(N)=O)c2ccccc2)nc(N2CCCN(CC(C)O)CC2)c1C#N` (stereo not drawn) [Example 107, 2-((3,5-dicyano-4-ethyl-6-(4-(2-hydroxypropyl)-1,4-diazepan-1-yl)pyridin-2-yl)thio)-2-phenylacetamide], the “DNMT1 BioChemical (pIC50 category)” value at DNMT1 (setting [2]) is listed as “D (Category D: ≥6.5)”. The IC50 on DNMT3B (setting [3]) and on human DNMT3a/3l (setting [4]) was more than 500000 nM in each case. For the same molecule, the EC50 in assay [1] is less than 316 nM.
On to `CCc1c(C#N)c(SC(C(N)=O)c2ccccc2)nc(N2CCNC(=O)C2)c1C#N` (stereo not drawn) [Example 50, 2-((3,5-Dicyano-4-ethyl-6-(3-oxopiperazin-1-yl)pyridin-2-yl)thio)-2-phenylacetamide], for which the IC50 on DNMT1 (setting [5]) was 316 to 1000 nM; at DNMT3B (setting [3]), more than 500000 nM; on human DNMT3a/3l (setting [4]), more than 500000 nM. The EC50 in assay [1] was less than 316 nM.
Regarding `CCc1c(C#N)c(SCc2ccc(CNC(=O)CO)cc2)nc(N2CCCN(C)CC2)c1C#N` [Example 86, N-(4-(((3,5-Dicyano-4-ethyl-6-(4-methyl-1,4-diazepan-1-yl)pyridin-2-yl)thio)methyl)benzyl)-2-hydroxyacetamide], the “DNMT1 BioChemical (pIC50 category)” value on DNMT1 (setting [2]) was “D (Category D: ≥6.5)”. Also, the “average pIC50 against DNMT1” value on DNMT1 (setting [6]) is given as more than 6.5. The figures for the IC50 at DNMT1 (setting [7]) and on DNMT3B (setting [3]) were 200 nM and more than 250000 nM, respectively. Also, the EC50 in assay [1] is less than 316 nM.
For `CCc1c(C#N)c(SC(C(N)=O)c2ccccc2)nc(N2CCN(CCO)CC2)c1C#N` (stereo not drawn) [Example 129, 2-((3,5-Dicyano-4-ethyl-6-(4-(2-hydroxyethyl)piperazin-1-yl)pyridin-2-yl)thio)-2-phenylacetamide], the IC50 at DNMT1 (setting [5]) was 316 to 1000 nM; on DNMT1 (setting [7]), not below 1000 nM; at DNMT3B (setting [3]), more than 500000 nM; on human DNMT3a/3l (setting [4]) it was more than 500000 nM. Moreover, the EC50 in assay [1] was 1000 to 31600 nM.
Consider `CCCN1CCCN(c2nc(SC(C(N)=O)c3ccccc3)c(C#N)c(CC)c2C#N)CC1` (stereo not drawn) [Example 6, 2-((3,5-dicyano-4-ethyl-6-(4-propyl-1,4-diazepan-1-yl)pyridin-2-yl)thio)-2-phenylacetamide], for which the “DNMT1 BioChemical (pIC50 category)” value at DNMT1 (setting [2]) is “D (Category D: ≥6.5)”. Besides, the IC50 on DNMT3B (setting [3]) was more than 500000 nM; on DNMT3B (setting [8]) it was more than 500000 nM; at human DNMT3a/3l (setting [4]), more than 500000 nM; on human DNMT3a/3l (repeated experimental runs, read-out: average IC50, DNMT3A breaklight assay), more than 500000 nM. Further, in assay [1], the EC50 is less than 316 nM.
For `CCc1c(C#N)c(SC(C(N)=O)c2ccccc2)nc(N2CC[C@H](O)C2)c1C#N` (stereo partly drawn) [Example 49, 2-((3,5-Dicyano-4-ethyl-6-((S)-3-hydroxypyrrolidin-1-yl)pyridin-2-yl)thio)-2-phenylacetamide], the “DNMT1 BioChemical (pIC50 category)” value at DNMT1 (setting [2]) was “D (Category D: ≥6.5)”. Besides, the IC50 at DNMT3B (setting [3]) and on human DNMT3a/3l (setting [4]) was more than 500000 nM throughout. Moreover, the EC50 in assay [1] is 316 to 1000 nM.
On to `CCc1c(C#N)c(SCc2ccc(CNC(C)=O)cc2)nc(N2CCCN(C)CC2)c1C#N` [Example 77, N-(4-(((3,5-Dicyano-4-ethyl-6-(4-methyl-1,4-diazepan-1-yl)pyridin-2-yl)thio)methyl)benzyl)acetamide], for which, at DNMT1 (setting [2]), the “DNMT1 BioChemical (pIC50 category)” value is “D (Category D: ≥6.5)”. In addition, on DNMT1 (setting [6]), the “average pIC50 against DNMT1” value is on record as more than 6.5. Moreover, the IC50 at DNMT3B (setting [3]) was more than 250000 nM. Moreover, in assay [1], the EC50 is less than 316 nM.
As to `CCc1c(C#N)c(SC(C(N)=O)c2ccccc2)nc(N2CCC(NC(=O)[C@H](C)N)CC2)c1C#N` (stereo partly drawn) [Example 138, (2S)-2-Amino-N-(1-(6-((2-amino-2-oxo-1-phenylethyl)thio)-3,5-dicyano-4-ethylpyridin-2-yl)piperidin-4-yl)propanamide, Trifluoroacetic Acid Salt], the “DNMT1 BioChemical (pIC50 category)” value at DNMT1 (setting [2]) is “D (Category D: ≥6.5)”. For the same molecule, the “average pIC50 against DNMT1” value on DNMT1 (breaklight assay and/or SPA assay, repeated experimental runs, Trifluoroacetic Acid Salt) is more than 6.5. Also, the IC50 at DNMT1 (setting [7]) is 100 nM; at DNMT3B (setting [3]) it was 167000 nM. In addition, the EC50 in assay [1] is less than 316 nM.
As for `CCc1c(C#N)c(SCc2ccc(S(=O)(=O)NC)cc2)nc(N2CCCN(C)CC2)c1C#N` [Example 104, 4-(((3,5-Dicyano-4-ethyl-6-(4-methyl-1,4-diazepan-1-yl)pyridin-2-yl)thio)methyl)-N-methylbenzenesulfonamide], the “DNMT1 BioChemical (pIC50 category)” value at DNMT1 (setting [2]) was “D (Category D: ≥6.5)”. The IC50 on DNMT3B (setting [3]) is 254000 nM. In addition, the EC50 in assay [1] was less than 316 nM.
As for `CCc1c(C#N)c(SCc2ccccc2)nc(N2CCC(N)CC2)c1C#N` [Example 81, 2-(4-Aminopiperidin-1-yl)-6-(benzylthio)-4-ethylpyridine-3,5-dicarbonitrile], the figures for the IC50 on DNMT1 (setting [5]), on DNMT1 (setting [7]) and at DNMT3B (setting [3]) were 316 to 1000 nM, not below 1000 nM and more than 250000 nM, respectively. For the same molecule, the EC50 in assay [1] was more than 31600 nM.
In the case of `CCc1c(C#N)c(SCc2ccc(CC(N)=O)cc2)nc(N2CCCN(C)CC2)c1C#N` [Example 83, 2-(4-(((3,5-dicyano-4-ethyl-6-(4-methyl-1,4-diazepan-1-yl)pyridin-2-yl)thio)methyl)phenyl)acetamide], on DNMT1 (setting [2]), the “DNMT1 BioChemical (pIC50 category)” value is “D (Category D: ≥6.5)”. Also, the “average pIC50 against DNMT1” value on DNMT1 (setting [6]) is recorded as more than 6.5. Moreover, the IC50 at DNMT3B (setting [3]) is more than 250000 nM. The EC50 in assay [1] was less than 316 nM.
`CCc1c(C#N)c(SC(C(N)=O)c2ccccc2)nc(N(C)C)c1C#N` (stereo not drawn) [Example 3, 2-{[3,5-dicyano-6-(dimethylamino)-4-ethylpyridin-2-yl]sulfanyl}-2-phenylacetamide]: the IC50 on DNMT3B (setting [3]) and at DNMT3B (setting [8]) was more than 500000 nM in each case. Also, the EC50 in assay [1] is 316 to 1000 nM.
As for `CCc1c(C#N)c(SCc2ccc(S(N)(=O)=O)cc2)nc(N2CCCN(C)CC2)c1C#N` [Example 76, 4-(((3,5-Dicyano-4-ethyl-6-(4-methyl-1,4-diazepan-1-yl)pyridin-2-yl)thio)methyl)benzenesulfonamide], the IC50 on DNMT3B (setting [3]) is more than 250000 nM. Besides, in assay [1], the EC50 was 316 to 1000 nM.
For `CCc1c(C#N)c(SCc2ccc(=O)[nH]c2)nc(N(C)C)c1C#N` [Example 74, 2-(Dimethylamino)-4-ethyl-6-(((6-oxo-1,6-dihydropyridin-3-yl)methyl)thio)pyridine-3,5-dicarbonitrile], the IC50 on DNMT1 (setting [5]) is 1000 to 31600 nM; at DNMT1 (setting [7]), not below 1000 nM; at DNMT3B (setting [3]), more than 250000 nM. Moreover, the EC50 in assay [1] was 1000 to 31600 nM.
Consider `CCc1c(C#N)c(SCc2ccc(CN3CCCC3=O)cc2)nc(N2CCCN(C)CC2)c1C#N` [Example 269, 4-Ethyl-2-(4-methyl-1,4-diazepan-1-yl)-6-((4-((2-oxopyrrolidin-1-yl)methyl)benzyl)thio)pyridine-3,5-dicarbonitrile], for which the IC50 on DNMT1 (setting [5]) is 1000 to 31600 nM. The EC50 in assay [1] is 1000 to 31600 nM.
As to `CCc1c(C#N)c(SCc2ccc(CNS(C)(=O)=O)cc2)nc(N2CCCN(C)CC2)c1C#N` [Example 79, N-(4-(((3,5-Dicyano-4-ethyl-6-(4-methyl-1,4-diazepan-1-yl)pyridin-2-yl)thio)methyl)benzyl)methanesulfonamide], the “DNMT1 BioChemical (pIC50 category)” value on DNMT1 (setting [2]) is “D (Category D: ≥6.5)”. For the same molecule, the IC50 on DNMT1 (setting [7]) is 316 nM. The EC50 in assay [1] is 316 to 1000 nM.
For the molecule `CCc1c(C#N)c(SC(C(N)=O)c2ccncc2F)nc(N2CCCN(C)CC2)c1C#N` (stereo not drawn) [Example 248, 2-((3,5-Dicyano-4-ethyl-6-(4-methyl-1,4-diazepan-1-yl)pyridin-2-yl)thio)-2-(3-fluoropyridin-4-yl)acetamide], the IC50 at DNMT1 (setting [5]) was 316 to 1000 nM. The EC50 in assay [1] was more than 31600 nM.
